Measured values: PubChem BioAssay AID248 (DTP/NCI, 2004)
Values joined by “and” are separate entries in the source; they are usually repeats but may differ in a detail not shown here. Equal entries are not always repeated. Inconclusive results and toxic doses are left out. Rule as the data show it: active = T/C of 150% or more; inactive = T/C below 125%.

Test system: L1210 leukemia ip in BDF1 mice, survival T/C
Assay: NCI In Vivo Anticancer Drug Screen. Data for tumor model L1210 Leukemia (intraperitoneal) in B6D2F1 (BDF1) mice
Conditions: endpoint: mean survival time, higher = longer survival
In short: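 Value reflects the ratio of survival in compound-treated mice to survival in vehicle-treated controls, with both groups carrying the same transplanted tumor.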

[1] = dose: 100.0 mg/kg/injection, schedule: Q01DX009 (ip), vehicle: saline with Tween-80
[2] = dose: 200.0 mg/kg/injection, schedule: Q01DX009 (ip), vehicle: saline with Tween-80
[3] = dose: 400.0 mg/kg/injection, schedule: Q01DX009 (ip), vehicle: saline with Tween-80
[4] = dose: 100.0 mg/kg/injection, schedule: Q04DX003 (ip), vehicle: saline with Tween-80
[5] = dose: 200.0 mg/kg/injection, schedule: Q04DX003 (ip), vehicle: saline with Tween-80
[6] = dose: 400.0 mg/kg/injection, schedule: Q04DX003 (ip), vehicle: saline with Tween-80
[7] = dose: 100.0 mg/kg/injection, schedule: Q01DX009 (ip), vehicle: Klucel (hydroxypropylcellulose) (HPC)
[8] = dose: 200.0 mg/kg/injection, schedule: Q01DX009 (ip), vehicle: Klucel (hydroxypropylcellulose) (HPC)
[9] = dose: 400.0 mg/kg/injection, schedule: Q01DX009 (ip), vehicle: Klucel (hydroxypropylcellulose) (HPC)
[10] = dose: 50.0 mg/kg/injection, schedule: Q01DX001 (ip), vehicle: saline
[11] = dose: 100.0 mg/kg/injection, schedule: Q01DX001 (ip), vehicle: saline
[12] = dose: 200.0 mg/kg/injection, schedule: Q01DX001 (ip), vehicle: saline
[13] = dose: 400.0 mg/kg/injection, schedule: Q01DX001 (ip), vehicle: saline

Measured: T/C

O=NN(CCCl)C(=O)NC1CCC(C(=O)O)CC1 (stereo unspecified)
active: dose: 6.0 mg/kg/injection, schedule: Q01DX001 (ip), vehicle: saline with Tween-80 168 % of control | dose: 9.0 mg/kg/injection, schedule: Q01DX001 (ip), vehicle: saline with Tween-80 195 % of control and 215 % of control | dose: 13.0 mg/kg/injection, schedule: Q01DX001 (ip), vehicle: saline with Tween-80 275 % of control and 154 % of control and 260 % of control | dose: 20.0 mg/kg/injection, schedule: Q01DX001 (ip), vehicle: saline with Tween-80 291 % of control and 409 % of control | dose: 30.0 mg/kg/injection, schedule: Q01DX001 (ip), vehicle: saline with Tween-80 310 % of control | dose: 45.0 mg/kg/injection, schedule: Q01DX001 (ip), vehicle: saline with Tween-80 544 % of control | dose: 46.0 mg/kg/injection, schedule: Q01DX001 (ip), vehicle: saline with Tween-80 311 % of control and 191 % of control | dose: 67.5 mg/kg/injection, schedule: Q01DX001 (ip), vehicle: saline with Tween-80 525 % of control
inactive: dose: 139.0 mg/kg/injection, schedule: Q01DX001 (ip), vehicle: saline with Tween-80 91 % of control
209 % of control and 101 % of control: dose: 93.0 mg/kg/injection, schedule: Q01DX001 (ip), vehicle: saline with Tween-80

CCOP(=S)(N/N=C1\CC2CCC1C2)OCC (stereo unspecified)
inactive: dose: 100.0 mg/kg/injection, schedule: Q01DX001 (ip), vehicle: other 94 % of control

COC1(C#N)C(=O)c2ccccc2C1=O
inactive: dose: 100.0 mg/kg/injection, schedule: Q01DX001 (ip), vehicle: saline with Tween-80 97 % of control | dose: 200.0 mg/kg/injection, schedule: Q01DX001 (ip), vehicle: saline with Tween-80 108 % of control | dose: 400.0 mg/kg/injection, schedule: Q01DX001 (ip), vehicle: saline with Tween-80 94 % of control

COc1ccc(C(=O)NC(=S)Nc2cccc([N+](=O)[O-])c2)cc1
inactive: [1] 95 % of control and 88 % of control | dose: 100.0 mg/kg/injection, schedule: Q04DX002 (ip), vehicle: saline 88 % of control | [2] 88 % of control and 89 % of control | dose: 200.0 mg/kg/injection, schedule: Q04DX002 (ip), vehicle: saline 91 % of control | [3] 103 % of control | dose: 400.0 mg/kg/injection, schedule: Q04DX002 (ip), vehicle: saline 98 % of control

Oc1ccccc1/C=N/Sc1ccccc1.Oc1ccccc1/C=N/Sc1ccccc1.[Ni+2]
inactive: dose: 100.0 mg/kg/injection, schedule: Q04DX002 (ip), vehicle: Klucel (hydroxypropylcellulose) (HPC) 94 % of control | dose: 200.0 mg/kg/injection, schedule: Q04DX002 (ip), vehicle: Klucel (hydroxypropylcellulose) (HPC) 94 % of control | dose: 400.0 mg/kg/injection, schedule: Q04DX002 (ip), vehicle: Klucel (hydroxypropylcellulose) (HPC) 105 % of control

COC(=O)C1(C(=O)OC)CCC=CC1=O
inactive: [1] 107 % of control | [4] 97 % of control | [2] 93 % of control | [5] 101 % of control | [3] 109 % of control | [6] 106 % of control

S=c1cc[nH]c2[nH]ncc12
inactive: dose: 100.0 mg/kg/injection, schedule: Q04DX002 (ip), vehicle: DMSO 94 % of control | dose: 200.0 mg/kg/injection, schedule: Q04DX002 (ip), vehicle: DMSO 97 % of control

ClCCNCc1cccc(Nc2ccnc3cc(Cl)ccc23)c1
inactive: dose: 75.0 mg/kg/injection, schedule: Q01DX001 (ip), vehicle: carboxymethylcellulose (CMC) 103 % of control | dose: 150.0 mg/kg/injection, schedule: Q01DX001 (ip), vehicle: carboxymethylcellulose (CMC) 95 % of control

CCCCCCCCCCCCCCCCOc1cccc(OCc2ccccc2)c1
inactive: dose: 100.0 mg/kg/injection, schedule: Q04DX003 (ip), vehicle: DMSO 88 % of control | dose: 200.0 mg/kg/injection, schedule: Q04DX003 (ip), vehicle: DMSO 98 % of control | dose: 400.0 mg/kg/injection, schedule: Q04DX003 (ip), vehicle: DMSO 93 % of control

O=CNC(c1ccccc1)(c1ccccc1)c1ccccc1
inactive: [7] 99 % of control | dose: 100.0 mg/kg/injection, schedule: Q04DX003 (ip), vehicle: Klucel (hydroxypropylcellulose) (HPC) 102 % of control | [8] 91 % of control | dose: 200.0 mg/kg/injection, schedule: Q04DX003 (ip), vehicle: Klucel (hydroxypropylcellulose) (HPC) 94 % of control | [9] 91 % of control | dose: 400.0 mg/kg/injection, schedule: Q04DX003 (ip), vehicle: Klucel (hydroxypropylcellulose) (HPC) 102 % of control

O=C(O)/C=C/c1ccccc1Br
inactive: [10] 97 % of control | [11] 91 % of control | [7] 102 % of control | [12] 94 % of control | [8] 100 % of control | [13] 97 % of control | [9] 100 % of control

O/N=C(\CC(O)(C(F)(F)F)C(F)(F)F)c1cccs1
inactive: dose: 50.0 mg/kg/injection, schedule: Q04DX003 (ip), vehicle: saline with Tween-80 98 % of control | [4] 98 % of control | [5] 98 % of control | [6] 95 % of control

COc1cc(OC)c(OC)cc1C=NC1CCCCCCC1
inactive: dose: 50.0 mg/kg/injection, schedule: Q01DX009 (ip), vehicle: saline with Tween-80 91 % of control | [1] 102 % of control | [2] 102 % of control

Cc1ccc2nc(Cl)cc(=O)n2c1
inactive: [10] 97 % of control | [11] 97 % of control | [12] 97 % of control

CC(C)(C)NC(N)=O
inactive: dose: 100.0 mg/kg/injection, schedule: Q01DX009 (ip), vehicle: saline 100 % of control | dose: 200.0 mg/kg/injection, schedule: Q01DX009 (ip), vehicle: saline 97 % of control | dose: 400.0 mg/kg/injection, schedule: Q01DX009 (ip), vehicle: saline 100 % of control

O=CC(CCN1CCCC1)(CCN1CCCC1)c1cccc2ccccc12
inactive: dose: 12.5 mg/kg/injection, schedule: Q04DX003 (ip), vehicle: saline 97 % of control | dose: 25.0 mg/kg/injection, schedule: Q04DX003 (ip), vehicle: saline 108 % of control | dose: 50.0 mg/kg/injection, schedule: Q04DX003 (ip), vehicle: saline 93 % of control

C(=C\c1ccccn1)/c1ccc2c(c1)OCO2
inactive: dose: 75.0 mg/kg/injection, schedule: Q01DX009 (ip), vehicle: saline 93 % of control | [11] 101 % of control | dose: 150.0 mg/kg/injection, schedule: Q01DX009 (ip), vehicle: saline 93 % of control | [12] 96 % of control | dose: 300.0 mg/kg/injection, schedule: Q01DX009 (ip), vehicle: saline 88 % of control | [13] 95 % of control
